Results on 10 molecules are retold here after patent publication US8071631B2, “Small molecule inhibitors of kynurenine-3-monooxygenase” (The J. David Gladstone Institutes, A Testamentary Trust …, priority 2006, dated 2011).

Structures are written as SMILES.

This test deals with kynurenine-3-monooxygenase (KMO). The experiment in a line: KMO inhibition, radiometric assay per Erickson et al. (release of 3H2O from L-[3,5-3H]-kynurenine). It is filed as biochemical. As to conditions: compound at 10 μM. On the procedure:
The KMO inhibiting activities of the compounds of the present invention were evaluated using standard methods. See Erickson et al., A Radiometric Assay for Kynurenine 3-Hydroxylase Based on the Release of ^3H2O During Hydroxylation of L-[3,5-^3H]-Kynurenine, Anal. Biochem. 1992, 205, 257-262, the disclosure of which is hereby incorporated by reference.
The IC50 value is the half maximal inhibitory concentration and represents the concentration of an inhibitor that is required for 50% inhibition of an enzyme activity and the percent inhibition measures the amount of enzyme activity inhibited at a given concentration of compound. If the administered compound is a prodrug then the prodrug may not inhibit KMO until it has metabolized appropriately.
The term % inhibition denotes the relative decrease from the control value, in per cent. Take `Cc1ccc(S(=O)(=O)Nc2nc(-c3ccccc3)ns2)cc1` [Compound A2, 4-methyl-N-[3-(phenyl)-1,2,4-thiadiazol-5-yl]benzenesulfonamide]: the “% inhibition at 10 μM” value was determined as 77.9%.
Turning to `COc1ccc(S(=O)(=O)Nc2nsc(-c3ccc(Cl)cc3)n2)cc1OC` [Compound A19, 3,4-dimethoxy-N-[5-(4-chlorophenyl)-1,2,4-thiadiazole-3-yl]benzenesulfonamide], the “% inhibition at 10 μM” value is 68.6%.
Next, `COc1ccc(S(=O)(=O)Nc2ccc(-c3ccccc3)cn2)cc1OC` [Compound A25, 3,4-dimethoxy-N-[5-(phenyl)-pyridine-2-yl]benzenesulfonamide]: 24.8%.
Next, `COc1ccc(S(=O)(=O)Nc2cc(-c3ccccc3)no2)cc1OC` [Compound A13, 3,4-dimethoxy-N-[3-(phenyl)-isoxazol-5-yl]benzenesulfonamide]: 17.82%; `COc1ccc(S(=O)(=O)Nc2nc(-c3ccccc3)ns2)cc1OC` [Compound A1, 3,4-dimethoxy-N-[3-(phenyl)-1,2,4-thiadiazol-5-yl]benzenesulfonamide]: 73.61%.
Consider `COc1ccc(S(=O)(=O)[N-]c2cccc(-c3ccccc3)c2)cc1OC.[K+]` [Compound A22, Potassium 3,4-dimethoxy-N-[biphenyl-3-yl]benzenesulfonamide], for which the “% inhibition at 10 μM” value is reported as 19.57%.
With `Cc1ccc(S(=O)(=O)Nc2nnc(-c3ccccc3)s2)cc1` [Compound A6, 4-methyl-N-[5-(phenyl)-1,3,4-thiadiazol-2-yl]benzenesulfonamide] the figure was 71.59%; with `COc1ccc(-c2cnc(NS(=O)(=O)c3ccc(OC)c(OC)c3)nc2)cc1` [Compound A23, 3,4-dimethoxy-N-[5-(4-methoxyphenyl)-pyrimidine-2-yl]benzenesulfonamide], 17.5%; with `Cc1ccc(S(=O)(=O)Nc2cc(-c3ccccc3)no2)cc1` [Compound A14, 4-methyl-N-[3-(phenyl)-isoxazol-5-yl]benzenesulfonamide], 30.74%.
Regarding `COc1ccc(S(=O)(=O)Nc2nnc(-c3ccccc3)s2)cc1OC` [Compound A5, 3,4-dimethoxy-N-[5-(phenyl)-1,3,4-thiadiazol-2-yl]benzenesulfonamide], the “% inhibition at 10 μM” value turned out to be 60.03%.
